Holding throughout (type): in vivo
Test [1] has as its system Aphis gossypii. The test can be described thus: Test Example 3: root immersion of cucumber seedling, Aphis gossypii. The conditions noted are these: 168 h, cucumber root part immersed in 5 ml, inoculated one day after treatment, checked seven days after. Here is the method: The formulations of the present active compounds (18), (19), (21), (22), (24), (25), (28), (31) to (34), (46), (47), (52), (53), (101) to (104), (106) to (108), (112) to (114), (117), (118), (122), (123), (126), (128), (129), (133), (134), (138), (144), (153) to (155) and (157) obtained by Formulation Example 5 were diluted with water so that the active ingredient concentration was 500 ppm, to prepare diluted solutions for test. A root part of a cucumber seedling (first true leaf spreading stage) from which soil had been washed off was immersed in 5 ml of this diluted solution, and one day after treatment, the cucumber leaf surface was inoculated with 30 Aphis gossypii (whole stage). Further seven days after, the number of insect of living Aphis gossypii […] on the leaves of this cucumber was checked, and the control value was calculated according to the following formula. Control value (%)={1-(Cb×Tai)/(Cai×Tb)}×100 Letters in the formula represent the following meanings. Cb: the number of insect before treatment on non-treated district Cai: the number of insect in observation on non-treated district Tb: the number of insect before treatment on treated district Tai: the number of insect in observation on treated district

The test system of test [2] is Nilaparvata lugens. The experiment in a line: Test Example 8: spray on rice seedling, 20 first instar larvae of Nilaparvata lugens. The following applies: 144 h, 10 ml sprayed on rice seedling, 20 first instar larvae released, 6 days at 25° C. Here is the method: The formulations of the present active compounds (6), (7), (18), (21), (24), (25), (28) to (30), (32), (46), (52), (101) to (103), (105) to (107), (111), (112), (115), (119) to (124), (126) to (130), (133) to (135), (139), (142), (144) to (146), (149) to (151), (153), (154), (216) and (217) obtained by Formulation Example 5 were diluted with water so that the active ingredient concentration was 500 ppm, to prepare spray solutions for test. Separately, on a rice seedling (2 weeks after sowing, second leaf spreading stage) planted on a plastic cup, the drug solutions for test prepared as described above were sprayed each in an amount of 10 ml. After drying of the drug solution sprayed on rice, 20 first instar larvae of Nilaparvata lugens were released, and kept in a greenhouse of 25° C. for 6 days. Thereafter, the number of Nilaparvata lugens […] on rice was checked, and the control value was calculated according to the following formula. Control value (%)={1-(Cb×Tai)/(Cai×Tb)}×100 Letters in the formula represent the following meanings. Cb: the number of insect before treatment on non-treated district Cai: the number of insect in observation on non-treated district Tb: the number of insect before treatment on treated district Tai: the number of insect in observation on treated district

Test [3] concerns Nilaparvata lugens. The test can be described thus: Test Example 9: foot drench of rice seedling, twenty first instar larvae of Nilaparvata lugens. The conditions noted are these: soil, 144 h, 5 ml drench at foot of rice seedling, kept 7 days, twenty first instar larvae released, further 6 days. Here is the method:
The formulations of the present active compounds (6), (7), (18), (22), (25), (30), (33), (46), (47), (53), (101) to (103), (106), (121) to (124), (126) to (128), (135), (139), (216) and (217) obtained by Formulation Example 5 were diluted with water so that the active ingredient concentration was 500 ppm, to prepare diluted solutions for test. Separately, a rice seedling (2 weeks after sowing, second leaf spreading stage) planted on a plastic cup was drenched at its foot with each 5 ml of the diluted solutions, and kept in a greenhouse of 25° C. for 7 days. Twenty first instar larvae of Nilaparvata lugens were released, and further kept in the greenhouse for 6 days, then, the number of insect of living Nilaparvata lugens […] on rice was checked, and the control value was calculated according to the following formula. Control value (%)={1-(Cb×Tai)/(Cai×Tb)}×100 Letters in the formula represent the following meanings. Cb: the number of insect before treatment on non-treated district Cai: the number of insect in observation on non-treated district Tb: the number of insect before treatment on treated district Tai: the number of insect in observation on treated district

Test [4] deals with Aphis gossypii. The experiment in a line: Test Example 4: foot drench of cucumber seedling in plastic cup, inoculation after 7 days, Aphis gossypii. The conditions noted are these: soil, 144 h, 5 ml drench at foot of cucumber seedling in plastic cup, kept 7 days at 25° C., inoculated, further 6 days. The method, then: The formulations of the present active compounds (3) to (7), (17), (19), (20), (22), (29) to (31), (35) to (37), (39), (41) to (45), (47) to (56), (101), (106), (121) to (123), (128), (131), (137), (139), (143), (145), (147), (211) to (213), (216) and (217) obtained by Formulation Example 5 were diluted with water so that the active ingredient concentration was 500 ppm, to prepare diluted solutions for test. Separately, a cucumber seedling (second true leaf spreading stage) planted on a plastic cup was drenched at its foot with each 5 ml of the diluted solutions, and kept in a greenhouse of 25° C. for 7 days. The cucumber leaf surface was inoculated with 30 Aphis gossypii (whole stage), and further kept in the greenhouse for 6 days, then, the number of insect of living Aphis gossypii […] on the leaves of this cucumber was checked, and the control value was calculated according to the following formula. Control value (%)={1-(Cb×Tai)/(Cai×Tb)}×100 Letters in the formula represent the following meanings. Cb: the number of insect before treatment on non-treated district Cai: the number of insect in observation on non-treated district Tb: the number of insect before treatment on treated district Tai: the number of insect in observation on treated district

Test [5] deals with Aphis gossypii. The test can be described thus: Test Example 2: foot drench of cucumber seedling on urethane mat, Aphis gossypii. The conditions noted are these: soil, 168 h, 5 ml drench at foot of cucumber seedling on urethane mat, inoculated one day after treatment, checked seven days after. Here is the method:
The formulations of the present active compounds (4), (5), (8), (9), (11), (12), (14), (15), (17), (20), (35) to (45), (48) to (51), (54) to (56), (206), (209) and (211) to (213) obtained by Formulation Example 5 were diluted with water so that the active ingredient concentration was 500 ppm, to prepare diluted solutions for test. Separately, a cucumber seedling (second true leaf spreading stage) planted on a urethane mat was drenched at its foot with each 5 ml of the diluted solutions, and one day after treatment, the cucumber leaf surface was inoculated with 30 Aphis gossypii (whole stage). Further seven days after, the number of insect of living Aphis gossypii […] on the leaves of this cucumber was checked, and the control value was calculated according to the following formula. Control value (%)={1-(Cb×Tai)/(Cai×Tb)}×100 Letters in the formula represent the following meanings. Cb: the number of insect before treatment on non-treated district Cai: the number of insect in observation on non-treated district Tb: the number of insect before treatment on treated district Tai: the number of insect in observation on treated district

A word on the pest or weed control: it is the degree to which the test organism was suppressed or injured, in per cent.

The structures appear in SMILES notation.

Turning to `COCCOc1cnccc1-c1nc2cc(C(F)(F)F)cnc2n1C` [present active compound 46, 2-[3-(2-methoxyethoxy)-pyridin-4-yl]-3-methyl-6-trifluoromethyl-3H-imidazo[4,5-b]pyridine], the pest or weed control at 500 ppm with Aphis gossypii [1], in the test on Nilaparvata lugens [2] and in the test on Nilaparvata lugens [3] was at least 90% each time.

For the compound `Cn1c(-c2ccncc2[S+](C)[O-])nc2cc(C(F)(F)F)ccc21` (stereo not drawn) [present active compound 18, 2-(3-methanesulfinylpyridin-4-yl)-1-methyl-5-trifluoromethyl-1H-benzimidazole], the pest or weed control at 500 ppm in the test with Aphis gossypii [1], in the test on Nilaparvata lugens [2] and with Nilaparvata lugens [3] was at least 90% throughout.

Consider `CCOCCOc1cnccc1-c1nc2cc(C(F)(F)F)cnc2n1C` [present active compound 47, 2-[3-(2-ethoxyethoxy)-pyridin-4-yl]-3-methyl-6-trifluoromethyl-3H-imidazo[4,5-b]pyridine], for which the pest or weed control at 500 ppm in the test on Aphis gossypii [1] and in the test on Nilaparvata lugens [3] was at least 90% each time.

Regarding `Cc1cnccc1-c1nc2cc(C(F)(F)F)ccc2n1C` [present active compound 6, 1-methyl-2-(3-methylpyridin-4-yl)-5-trifluoromethyl-1H-benzimidazole], the pest or weed control at 500 ppm in the test on Nilaparvata lugens [2] and in the test on Nilaparvata lugens [3] was at least 90% each time.

For the compound `Cc1cnccc1-c1nc2cc(C(F)(F)F)cnc2n1C` [present active compound 216, 3-methyl-2-(3-methylpyridin-4-yl-)-6-trifluoromethyl-3H-imidazo[4,5-b]pyridine], the pest or weed control at 500 ppm in the test on Nilaparvata lugens [2], with Nilaparvata lugens [3] and in the test with Aphis gossypii [4] was at least 90% throughout.

The compound `CCOc1cnccc1-c1nc2cc(C(F)(F)F)ccc2n1C` [present active compound 9, 2-(3-ethoxypyridin-4-yl)-1-methyl-5-trifluoromethyl-1H-benzimidazole] showed a pest or weed control at 500 ppm with Aphis gossypii [5] of at least 90%.

For `CCc1cnccc1-c1nc2cc(C(F)(F)F)cnc2n1C` [present active compound 217, 2-(3-ethylpyridin-4-yl-)-3-methyl-6-trifluoromethyl-3H-imidazo[4,5-b]pyridine], the pest or weed control at 500 ppm with Nilaparvata lugens [2], in the test on Nilaparvata lugens [3] and in the test with Aphis gossypii [4] was at least 90% throughout.

`Cn1c(-c2ccncc2F)nc2cc(C(F)(F)F)ccc21` [present active compound 4, 2-(3-fluoropyridin-4-yl)-1-methyl-5-trifluoromethyl-1H-benzimidazole] yielded a pest or weed control at 500 ppm with Aphis gossypii [5] of at least 90%.

On to `C#CCSc1cnccc1-c1nc2cc(C(F)(F)F)cnc2n1C` [present active compound 135], for which, in the test on Nilaparvata lugens [3], the pest or weed control at 500 ppm was at least 90%.

Consider `Cn1c(-c2ccncc2OC(C)(C)C)nc2cc(C(F)(F)F)ccc21` [present active compound 12, 2-(3-tert-butoxypyridin-4-yl)-1-methyl-5-trifluoromethyl-1H-benzimidazole], for which, in the test on Aphis gossypii [5], the pest or weed control at 500 ppm is at least 90%.

Compound `COc1cnccc1-c1nc2cc(C(F)(F)F)ccc2n1C` [present active compound 8, 2-(3-methoxypyridin-4-yl)-1-methyl-5-trifluoromethyl-1H-benzimidazole] came in with a pest or weed control at 500 ppm in the test with Aphis gossypii [5] of at least 90%.

Compound `Cn1c(-c2ccncc2Cl)nc2cc(C(F)(F)F)ccc21` [present active compound 5, 2-(3-chloropyridin-4-yl)-1-methyl-5-trifluoromethyl-1H-benzimidazole] registered a pest or weed control at 500 ppm with Aphis gossypii [5] of at least 90%.

As for `CN(C)C(=O)c1cnccc1-c1nc2cc(C(F)(F)F)cnc2n1C` [present active compound 139], the pest or weed control at 500 ppm with Nilaparvata lugens [2], in the test on Nilaparvata lugens [3] and in the test with Aphis gossypii [4] was at least 90% throughout.

Consider `CCS(=O)(=O)c1cnccc1-c1nc2cc(C(F)(F)F)ccc2n1C` [present active compound 22, 2-(3-ethanesulfonylpyridin-4-yl)-1-methyl-5-trifluoromethyl-1H-benzimidazole], for which the pest or weed control at 500 ppm with Aphis gossypii [1], with Nilaparvata lugens [3] and in the test with Aphis gossypii [4] was at least 90% throughout.

The compound `Cn1c(-c2ccncc2OCCF)nc2cc(C(F)(F)F)ccc21` [present active compound 15, 2-[3-(2-fluoroethoxy)-pyridin-4-yl]-1-methyl-5-trifluoromethyl-1H-benzimidazole] returned a pest or weed control at 500 ppm with Aphis gossypii [5] of at least 90%.

On to `CCc1cnccc1-c1nc2cc(C(F)(F)F)ccc2n1C` [present active compound 7, 2-(3-ethylpyridin-4-yl)-1-methyl-5-trifluoromethyl-1H-benzimidazole], for which the pest or weed control at 500 ppm with Nilaparvata lugens [2] and with Nilaparvata lugens [3] was at least 90% in each case.

Regarding `CCS(=O)(=O)c1cnccc1-c1nc2cc(C(F)(F)F)cnc2n1C` [present active compound 53, 2-(3-ethanesulfonylpyridin-4-yl)-3-methyl-6-trifluoromethyl-3H-imidazo[4,5-b]pyridine], the pest or weed control at 500 ppm in the test with Aphis gossypii [1] and in the test with Nilaparvata lugens [3] was at least 90% in each case.
